Results: paper PMC10281321, “Discovery of an effective anti-inflammatory agent for inhibiting the activation of NF-κB” (Journal of Enzyme Inhibition and Medicinal Chemistry, 2023)

How the values were obtained:
Format in all cases: cell-based
NF-κB = NF-κB transcriptional activity dual-luciferase reporter assay, TNF-α stimulated; details: Homo sapiens, HEK-293T, HEK293T cells transfected with NF-κB reporter plasmid, stimulated by TNF-α
Protocol: 4.5. NF-κB transcriptional activity assay
HEK293T cells were seeded into 96 well plate at a density of 1×10^5 cells per well. After incubated for 24 hours, cells were transfected with NF-κB reporter plasmid at 100 ng/well using lip2000.Six hours later, the medium was replaced by fresh medium containing tested compounds with different concentrations. Then incubated for another hour, TNF-α was added for a final concentration at 10 ng/mL.12 hours later, the cell lysate was collected and the RLU was measured by microplate reader. […]

[1] = Cytotoxicity by MTT assay
[2] = test system: LPS-stimulated RAW264.7 cells; assay: NO release inhibition in LPS-stimulated RAW264.7 cells (Griess reagent); details: for IC50: Mus musculus, LPS-stimulated RAW264.7 cells, Griess Reagent; for anti-inflammatory activity (in words): SAR summary covering NO release and NF-κB reporter inhibition
Protocol: After incubated for 24 hours, cells were treated with tested compounds for different
concentrations(3.125,6.25,12.5,25 and 50μM) for 1 h, and then treated with 1 μg/mL LPS
for further 24 h. The supernatants were collected and NO level was measured using
Griess reagent (Beyotime, China). […]

| IC50 (NF-κB) [µM] | IC50 [2] [µM] | Structure (SMILES) | IC50 [1] [µM] | anti-inflammatory activity (in words) [2] |
| --- | --- | --- | --- | --- |
| > 2 | 24.2 ± 4.1 | CC(=O)Nc1ccc(NC(=O)c2cc(-c3ccc(C)cc3)cnc2N)cc1 [Compound 28] | > 50 | anti-inflammatory activity decreased significantly |
| > 2 | > 50 | CC(=O)Nc1ccc(NC(=O)c2cc(-c3cccc(C)c3)cnc2N)cc1 [Compound 29] | > 50 | anti-inflammatory activity decreased significantly |
| 1.04 ± 0.0175 | 17.8 ± 2.7 | CC(=O)Nc1ccc(NC(=O)c2cc(-c3ccc(S(C)(=O)=O)cc3)cnc2N)cc1 [Compound 30] | > 50 | – |
| > 2 | > 50 | COc1ccc(-c2cnc(N)c(C(=O)Nc3ccc(NC(C)=O)cc3)c2)cc1 [Compound 31] | > 50 | – |
| > 2 | > 50 | COc1cccc(-c2cnc(N)c(C(=O)Nc3ccc(NC(C)=O)cc3)c2)c1 [Compound 32] | > 50 | – |
| > 2 | > 50 | COc1ccccc1-c1cnc(N)c(C(=O)Nc2ccc(NC(C)=O)cc2)c1 [Compound 33] | > 50 | – |
| > 2 | > 50 | COc1ccc(-c2cnc(N)c(C(=O)Nc3ccc(NC(C)=O)cc3)c2)c(OC)c1OC [Compound 34] | > 50 | – |
| 0.207 ± 0.013 | 4.2 ± 0.8 | CC(=O)Nc1ccc(NC(=O)c2cc(-c3ccc(Cl)cc3)cnc2N)cc1 [Compound 35] | > 50 | significantly improved the anti-inflammatory activity |
| > 2 | > 50 | CC(=O)Nc1ccc(NC(=O)c2cc(-c3cccc(Cl)c3)cnc2N)cc1 [Compound 36] | > 50 | – |
| > 2 | > 50 | CC(=O)Nc1ccc(NC(=O)c2cc(-c3ccccc3Cl)cnc2N)cc1 [Compound 37] | > 50 | – |
| 0.827 ± 0.0186 | 13.7 ± 1.8 | CC(=O)Nc1ccc(NC(=O)c2cc(-c3ccc(F)cc3)cnc2N)cc1 [Compound 38] | > 50 | – |
| > 2 | > 50 | CC(=O)Nc1ccc(NC(=O)c2cc(-c3cccc(F)c3)cnc2N)cc1 [Compound 39] | > 50 | – |
| > 2 | 26.5 ± 3 | CC(=O)Nc1ccc(NC(=O)c2cc(-c3ccc(C(F)(F)F)cc3)cnc2N)cc1 [Compound 40] | > 50 | – |
| 0.307 ± 0.0214 | 8.4 ± 1.7 | CC(=O)Nc1ccc(NC(=O)c2cc(-c3cccc(C(F)(F)F)c3)cnc2N)cc1 [Compound 41] | > 50 | – |
| 1.01 ± 0.0184 | 14.6 ± 2.3 | CC(=O)Nc1ccc(NC(=O)c2cc(-c3ccccc3C(F)(F)F)cnc2N)cc1 [Compound 42] | > 50 | – |
| > 2 | > 50 | CC(=O)Nc1ccc(NC(=O)c2cc(-c3ccc(O)cc3)cnc2N)cc1 [Compound 43] | > 50 | – |
| > 2 | > 50 | CC(=O)Nc1ccc(NC(=O)c2cc(-c3cccc(O)c3)cnc2N)cc1 [Compound 44] | > 50 | – |
| > 2 | > 50 | CC(=O)Nc1ccc(NC(=O)c2cc(-c3ccccc3O)cnc2N)cc1 [Compound 45] | > 50 | – |
| > 2 | > 50 | CC(=O)Nc1ccc(NC(=O)c2cc(-c3ccc(C#N)cc3)cnc2N)cc1 [Compound 46] | > 50 | – |
| > 2 | 28.9 ± 2.1 | CC(=O)Nc1ccc(NC(=O)c2cc(-c3cccc(C#N)c3)cnc2N)cc1 [Compound 47] | > 50 | – |
| > 2 | > 50 | CC(=O)Nc1ccc(NC(=O)c2cc(-c3ccccc3C#N)cnc2N)cc1 [Compound 48] | > 50 | – |
| > 2 | > 50 | CC(=O)Nc1ccc(NC(=O)c2cc(-c3ccc(C=O)c(C)c3)cnc2N)cc1 [Compound 49] | > 50 | – |
| 0.577 ± 0.0216 | 8.6 ± 1.9 | CC(=O)Nc1ccc(NC(=O)c2cc(-c3ccc(F)c(C)c3)cnc2N)cc1 [Compound 50] | > 50 | superior anti-inflammatory activity |
| 1.42 ± 0.0247 | > 50 | COc1ccc(-c2cnc(N)c(C(=O)Nc3ccc(NC(C)=O)cc3)c2)c(F)c1 [Compound 52] | > 50 | – |
